This note sets out measurements from patent publication US6528511B2, “Partial fatty acid oxidation inhibitors in the treatment of congestive heart failure” (CV Therapeutics, Inc., priority 2000, dated 2003).

One series relates to dogs with heart failure. Kind of series: Canine model of congestive heart failure (intracoronary microembolizations), hemodynamic and angiographic measurements. The following applies: iv bolus 0.5 mg/kg then 1.0 mg/kg/hr for 40 min. It counts as in vivo, dog. As for the experimental part: The efficacy of ranolazine was studied using a canine model of congestive heart failure. Chronic LV dysfunction and failure was produced by multiple sequential intracoronary embolizations with polystyrene Latex microspheres (70-102 μm in diameter) which results in loss of viable myocardium. In the present study, 13 healthy mongrel dogs weighing between 23 and 25 kg underwent coronary microembolizations to produce heart failure. Intracoronary microembolizations were performed during cardiac catheterization under general anesthesia and sterile conditions. The anesthesia regimen consisted of intravenous oxymorphone hydrochloride (0.22 mg/kg), diazepam (0.17 mg/kg) and sodium pentobarbital (150-250 mg to effect). Dogs underwent an average of 5 microembolization procedures performed 1 to 3 weeks apart. Embolizations were discontinued when LV ejection fraction, determined angiographically, was <30%. Dogs were maintained for a period of 2-3 weeks to ensure that infarctions produced by the last microembolization were completely healed before studies were initiated. […] (The study was approved by the Henry Ford Health System Care of Experimental Animals Committee and conformed to the “Position of the American Heart Association on Research Animal Use,” adopted by the Association in November 1984, and to the Guiding Principles of the American Physiological Society on use of research animals). On the day of the study and following general anesthesia, aortic and LV pressure were measured with a catheter-tip micromanometer (Millar Instruments, Houston, Tex.) positioned through a femoral arteriotomy. Single-plane left ventriculograms were obtained during each catheterization after completion of the hemodynamic measurements with the dog placed on its right side. Ventriculograms were recorded on 35 mm cine film at 30 frames per second during the injection of 20 ml of contrast material (Reno-M-60, Squib, Princeton, N.J.). Correction for image magnification was made with a calibrated radiopaque grid placed at the level of the LV. Left ventricular end-systolic and end-diastolic volumes were calculated from ventricular silhouettes using the area-length method. The LV ejection fraction was calculated as the ratio of the difference of end-diastolic volume and end-systolic volume to end-diastolic volume times 100. Stroke volume was calculated as the difference between LV end-systolic and end-diastolic volumes obtained from the ventriculogram. Cardiac output was calculated as the product of stroke volume and heart rate. Extra systolic and post-extra systolic beats were excluded from all analyses. In each normal or heart failure dog, ranolazine dihydrochloride was administered in saline as an intravenous bolus injection of 0.5 mg/kg followed by a continuous intravenous infusion of 1.0 mg/kg/hr for 40 min. Arterial blood samples were drawn for determination of plasma ranolazine concentration. Samples were obtained at 5, 10, 20, 30, 35 and 40 min after initiation of treatment. Ranolazine was measured by high performance liquid chromatography (HPLC) using mass spectral detection. Following the withdrawal of the final blood sample at 40 min, hemodynamic and angiographic measurements were repeated. Each animal served as its own control. Pre-treatment values were compared to post-treatment values using a two-tailed paired Student's t-test with significance set at p<0.05. Data are presented as the mean±standard error of the mean.

Series [1] is described as follows: Arterial plasma ranolazine concentration in normal and heart failure dogs (HPLC-MS). The series is classed as in vivo, dog. Particulars: for Average ranolazine concentration during the final 10 minutes of treatment: dihydrochloride iv bolus 0.5 mg/kg then 1.0 mg/kg/hr for 40 min, mean±SEM. On the procedure: In each normal or heart failure dog, ranolazine dihydrochloride was administered in saline as an intravenous bolus injection of 0.5 mg/kg followed by a continuous intravenous infusion of 1.0 mg/kg/hr for 40 min. Arterial blood samples were drawn for determination of plasma ranolazine concentration. Samples were obtained at 5, 10, 20, 30, 35 and 40 min after initiation of treatment. Ranolazine was measured by high performance liquid chromatography (HPLC) using mass spectral detection. Following the withdrawal of the final blood sample at 40 min, hemodynamic and angiographic measurements were repeated.

Series [2] can be described thus: Ascending-dose SR bid study in healthy male volunteers, Day 5 pharmacokinetics of racemate and enantiomers. It counts as in vivo, human. Particulars: for concentration at 96 h / concentration at 108 h: male, human, plasma, oral; for concentration at 96 h: read-out: C96h; for concentration at 108 h: read-out: C108h; for Differences in pharmacokinetic parameters between enantiomers: multiple dosing with SR formulation. On the procedure:
This Example evaluated the safety and tolerability of administering racemic ranolazine free base formulations as in Example 3D. The individual and mean concentrations of racemic ranolazine and its enantiomers, (R)-(+)-N-(2,6-dimethylphenyl)-4-[2-hydroxy-3-(2 methoxyphenoxy)-propyl]-1-piperazineacetamide, (S)-(−)-N-(2,6-dimethylphenyl)-4-[2hydroxy-3-(2-methoxyphenoxy)-propyl]-1-piperazineacetamide in human plasma were also determined.
The study was performed with ascending doses of sustained release ranolazine dosage forms. Before and at intervals during and after the dosing period, blood samples were drawn for ranolazine assay and blood pressure, heart rate, ECG and symptoms were monitored throughout. Data summaries were reviewed after each phase before proceeding to the next phase of the study. Eight subjects, all healthy male volunteers aged between 18 and 40 entered and all completed the study and were available for pharmacokinetic and safety analysis. The subjects were each given doses of the various types of ranolazine free base in the form of sustained release tablets including 500 mg and 750 mg tablets or with matching placebo as necessary (2×750 mg size plus 1×500 mg size) to make unit oral doses of 1500 and 2000 mg.
In each phase: one dose bid for four days with a single dose on Day 5. On day 5 each volunteer underwent a full pharmacokinetic profile including supine and erect blood pressure (BP) and heart rate, ECG data, adverse events, clinical chemistry and hematology results, urinalysis results.
These tests were made using two-sided t-tests with estimates of variability from the ANOVA models. Steady state was also assessed by comparing means for C48 h, C72 h and C96 h using a mixed effects ANOVA model and untransformed and log, transformed data. For hemodynamic parameters, Day 1 pre-dose treatment means and Day 5 data were compared across treatments via two-sided t-tests using estimates of variability from mixed effects ANOVA models. Ninety and 95% confidence intervals were calculated for the treatment comparisons. No adjustments were made for multiple comparisons.

Series [3] can be described thus: Solubility of ranolazine in aqueous solutions versus solution pH. The series is classed as physicochemical.
The subject of series [4] is Patients, with or without congestive heart failure, with reproducible angina-limited exercise duration. Description: Exercise treadmill tolerance testing (ETT), modified Bruce protocol, crossover versus placebo. It counts as in vivo, human. The following applies: 500-1500 mg bid. On the procedure:
Patients, with or without congestive heart failure were withdrawn from anti-anginal drugs with reproducible anginalimited exercise duration and >1 mm ST depression were randomized to Ran (500 mg bid, 1000 mg bit and 1500 mg bid) and matching placebo (Pbo) in a double-blind, four-period, Latin square crossover design. Exercise treadmill tolerance testing (ETT) was performed following a modified Bruce protocol, at trough (12 hr after dosing) and peak (4 hr after dosing) dosing times.

Like-named read-outs stand apart in the source and are kept apart here. Bounds are passed on as bounds.

Regarding `COc1ccccc1OCC(O)CN1CCN(CC(=O)Nc2c(C)cccc2C)CC1` (racemic) [ranolazine, (±)-N-(2,6-dimethylphenyl)-4-[2-hydroxy-3-(2-methoxyphenoxy)-propyl]-1-piperazineacetamide], the “Effect on heart rate” value with dogs with heart failure (post- vs pre-treatment) is “no significant effects”. Moreover, in the series with dogs with heart failure (post- vs pre-treatment), the “Effect on mean aortic pressure” value was “no significant effects”. Moreover, the LV ejection fraction entry with dogs with heart failure (post- vs pre-treatment) is “significant increase”. Further, in the series with dogs with heart failure (post- vs pre-treatment), the “LV peak+dP/dt” value is on record as “significant increase”. The LV stroke volume entry in the series on dogs with heart failure (post- vs pre-treatment) is listed as “significant increase”. Also, the “LV peak−dP/dt (diastolic function)” value in the series on dogs with heart failure (data not shown) was “increase”. Further, the Average ranolazine concentration during the final 10 minutes of treatment in series [1] (dogs with heart failure) was 0.33 ± 0.04 µg/mL; in series [1] (normal dogs) it was 0.3 ± 0.02 µg/mL. In addition, in series [1] (iv bolus plus infusion, dogs), the “Time by which arterial ranolazine levels stabilized following the bolus injection” value is no more than 10 min. The Cave in series [2] (Day 5, 1500 mg SR bid) amounted to 4.126 ± 1.995 µg/mL; in series [2] (Day 5, 2000 mg SR bid) it was 5.705 ± 2.153 µg/mL. In addition, the Cmin came out at 2.932 ± 1.918 µg/mL in series [2] (Day 5, 1500 mg SR bid) and 4.149 ± 2.228 µg/mL in series [2] (Day 5, 2000 mg SR bid). The Degree of fluctuation in series [2] (Day 5, 1500 mg SR bid) is 0.664 ± 0.336; in series [2] (Day 5, 2000 mg SR bid), 0.591 ± 0.240. In series [2] (SR bid dosing, ranolazine free base), the “Steady-state plasma levels attained by” value is no more than 4 days. Besides, the concentration at 96 h in series [2] (1500 mg SR bid) was found to be 3.66 ± 1.92 µg/mL; in series [2] (2000 mg SR bid), 5.04 ± 1.8 µg/mL. The concentration at 108 h in series [2] (1500 mg SR bid) was 2.94 ± 1.94 µg/mL; in series [2] (2000 mg SR bid) it was 4.4 ± 2.4 µg/mL. In addition, the “USP Solubility Class” value in series [3] (Solution pH 4.81) was “Freely Soluble”; in series [3] (Solution pH 4.89), “Soluble”; in series [3] (Solution pH 4.90), “Soluble”; in series [3] (Solution pH 5.04), “Soluble”; in series [3] (Solution pH 5.35), “Sparingly Soluble”; in series [3] (Solution pH 5.82) it was “Slightly soluble”. The “USP Solubility Class” value was “Slightly soluble” in series [3] (Solution pH 6.46); “Very slightly soluble” in series [3] (Solution pH 6.73); “Very slightly soluble” in series [3] (Solution pH 7.08); “Very slightly soluble” in series [3] (Solution pH 7.59 (unbuffered water)); “Very slightly soluble” in series [3] (Solution pH 7.79); “Very slightly soluble” in series [3] (Solution pH 12.66). In series [3] (pH above about 6.5), the “Solubility in aqueous solutions” value is on record as “relatively insoluble”. For the same compound, the “Effects vs. Pbo on rest or exercise blood pressure or heart rate” value in series [4] is reported as “no clinically meaningful effects”. The “Exercise duration times in comparison to the placebo” value in series [4] is “improved”.

For `COc1ccccc1OC[C@H](O)CN1CCN(CC(=O)Nc2c(C)cccc2C)CC1` [(+)R ranolazine, (R)-(+)-N-(2,6-dimethylphenyl)-4-[2-hydroxy-3-(2 methoxyphenoxy)-propyl]-1-piperazineacetamide], in series [2] (Day 5, 1500 mg SR bid), the Cave was found to be 2.144 ± 1.115 µg/mL, the Cmin came to 1.436 ± 1.046 µg/mL and the Degree of fluctuation is given as 0.833 ± 0.402. In series [2] (1500 mg SR bid), the concentration at 96 h amounted to 2.01 ± 1.14 µg/mL and the concentration at 108 h came to 1.45 ± 1.07 µg/mL. For the same compound, the “Differences in pharmacokinetic parameters between enantiomers” value in series [2] is listed as “no differences”.

In series [2] (Day 5, 1500 mg SR bid), `COc1ccccc1OC[C@@H](O)CN1CCN(CC(=O)Nc2c(C)cccc2C)CC1` [(−)S ranolazine, (S)-(−)-N-(2,6-dimethylphenyl)-4-[2hydroxy-3-(2-methoxyphenoxy)-propyl]-1-piperazineacetamide] registered a Cave of 2.201 ± 1.237 µg/mL, a Cmin of 1.514 ± 1.201 µg/mL and a Degree of fluctuation of 0.824 ± 0.443. In addition, in series [2] (1500 mg SR bid), the concentration at 96 h worked out at 2.4 ± 1.21 µg/mL and the concentration at 108 h was 1.54 ± 1.26 µg/mL. The “Differences in pharmacokinetic parameters between enantiomers” value in series [2] was “no differences”.
